# Laboratory results as given in PubChem BioAssay AID743464 (Broad Institute, 2014).
# Active and inactive are the calls of the source.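 Rule for the calls: active = fitted curve of COX8b expression increase reaching level 40 at or below the top valid tested dose; inconclusive = flat fit between 30 and 70, or poor fit; inactive = the rest.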
# Columns and labels:
# [1] = change in PGC-1a target gene COX8b expression, dose response, C2C12 myotubes, RT-qPCR, cherry-pick (AID 743464); details: C2C12 myotubes, COX8b mRNA qPCR (delta-delta-Ct)
# [2] = system: C2C12 myotubes, COX8b mRNA qPCR (delta-delta-Ct); assay: as above
SMILES,COX8b expression increase ([1]; at 19.5 µM (top of the series)),AC40 [2],other results
CCN(CC(=O)NCc1ccc(Cl)cc1)C(=O)CSCC(=O)Nc1ccc(C)cc1,0.86 unspecified (inactive),,
O=c1[nH]c2ccccc2n1C1CCN(C(c2cc3ccccc3o2)c2nnnn2Cc2ccccc2)CC1 (centres undefined),12.6 unspecified (inactive),,
Cc1ccc(-c2ccc(C3[C@@H]4CN(C(=O)Nc5ccc(C(F)(F)F)cc5)C[C@H]3N4)cc2)cc1 (some centres undefined),,> 19.5 µM (inactive),
C=CS(=O)(=O)N(Cc1ccccc1Br)[C@H](CO)Cc1ccccc1,,> 19.5 µM (inactive),
N#Cc1ccc(-c2ccc(C3[C@@H]4CN(S(=O)(=O)c5ccc(F)cc5)C[C@H]3N4)cc2)cc1 (some centres undefined),,> 19.5 µM (inactive),
Cc1ccc(S(=O)(=O)N(C)C[C@H]2Oc3cc(C#Cc4ccncc4)ccc3S(=O)(=O)N([C@H](C)CO)C[C@H]2C)cc1,,19.3 µM,
Cc1ccc(Cn2ncc(Cl)c(Cl)c2=O)cc1,,> 19.5 µM (inactive),
C#CCN(C[C@@H]1[C@@H](OC(=O)NCCCCCC)[C@@H](OC(=O)NCCCCCC)Cn2c(=O)ccc(=O)n21)S(=O)(=O)c1ccc(C)cc1,4.23 unspecified (inactive),,
Cn1nnnc1SCC(=O)NCc1cccc(C(=O)O)c1,-7.14 unspecified (inactive),,
CCN1CCN(Cc2ccc(NC(=O)c3cc(NC(=O)c4cncc(-c5ccc(C#N)cc5)c4)cc(OC)c3)cc2C(F)(F)F)CC1,-3 unspecified (inactive),,
Cc1ccccc1-n1nnnc1Sc1nnnn1-c1ccccc1,9.68 unspecified (inactive),,
O=c1cc(CSc2ccccn2)[nH]c(=O)[nH]1,-6.81 unspecified (inactive),,
COc1ccc(C(=O)Nc2cccc(NC(=O)c3ccc(OC)c(OC)c3)n2)cc1OC,7.85 unspecified (inactive),,
CCn1nc(/C=C/c2ccccc2)nc2c(=O)n(C)c(=O)nc1-2,,0.78 µM,
CC1=C(Cl)C2=NS(=O)(=O)CCN2C=C1Cl,6.22 unspecified (inactive),,
Cc1ccc(S(=O)(=O)N(C)C[C@@H]2Oc3cc(C#Cc4ccncc4)ccc3S(=O)(=O)N([C@@H](C)CO)C[C@H]2C)cc1,,> 19.5 µM (inactive),
Cc1cccc(NC(=O)CNC(=O)Cn2ncc(Cl)c(Cl)c2=O)c1C,,> 19.5 µM (inactive),
Cc1cc2c(c(/C=C/C(=O)c3ccccc3)c1)OC1(C=C2)Oc2ccccc2C(=O)N1C (centres undefined),21.7 unspecified (inactive),,
Cc1ccc(S(=O)(=O)N(C)C[C@@H]2Oc3cc(C#Cc4ccncc4)ccc3S(=O)(=O)N([C@H](C)CO)C[C@H]2C)cc1,,> 19.5 µM (inactive),
Cc1cc(C)cc(OC(=O)CS(=O)c2ccc(C(F)(F)F)cc2[N+](=O)[O-])c1 (centres undefined),-6.23 unspecified (inactive),,
O=C(C[C@H]1CC[C@@H](NC(=O)c2ccccc2)[C@H](CO)O1)Nc1ccc(-c2ccccc2)cc1,-12.4 unspecified (inactive),,
CCCN(CC)c1ncnc2[nH]ncc12,,17.5 µM,

SMILES,COX8b expression increase ([1]; at 19.5 µM (top of the series)),AC40 [2],other results
Cc1nc2ccccn2c1C(=O)/C=C/c1ccc(F)cc1,-3.59 unspecified (inactive),,
CC[C@H](C)[C@H](NC(=O)c1ccc(Cl)cc1)C(=O)OCC(=O)c1ccc2c(c1)NC(=O)CO2,-1.89 unspecified (inactive),,
COc1ccccc1C#Cc1ccc2c(c1)O[C@@H](CN(C)Cc1cccnc1)[C@H](C)CN([C@H](C)CO)S2(=O)=O,,> 19.5 µM (inactive),
COc1ccccc1-c1ccc([C@@H]2[C@@H]3CN(S(=O)(=O)c4ccc(-c5ccccc5)cc4)C[C@H]2N3)cc1,,> 19.5 µM (inactive),
COC(=O)c1nn(-c2ccccc2)ccc1=O,3.82 unspecified (inactive),,
CCN1CCN(Cc2ccc(NC(=O)c3ccc(C)c(NC(=O)c4c[nH]c5cc(C(F)(F)F)ccc5c4=O)c3)cc2C(F)(F)F)CC1,15.7 unspecified (inactive),,
C[C@H]1CN([C@@H](C)CO)S(=O)(=O)c2ccc(-c3ccccc3)cc2O[C@@H]1CN(C)Cc1cccc(F)c1,-3.3 unspecified (inactive),,
COc1ccccc1C#Cc1ccc([C@H]2[C@H](C#N)N(C(=O)C3CCCC3)[C@H]2CO)cc1,21.2 unspecified (inactive),,
C[C@H](CO)N1C[C@H](C)[C@@H](CN(C)Cc2cccnc2)Oc2cc(C#CC3CCCCC3)ccc2S1(=O)=O,0.89 unspecified (inactive),,
CCOc1cc(CNC2CCCC2)cc(Cl)c1OCc1ccc(F)cc1,0.737 unspecified (inactive),,
C[C@H](CO)N1C[C@H](C)[C@@H](CN(C)C(=O)C2CCCCC2)Oc2cc(C#Cc3ccncc3)ccc2S1(=O)=O,9.62 unspecified (inactive),,
Nc1ncnc(NCc2ccc(F)cc2)c1[N+](=O)[O-],1.72 unspecified (inactive),,
Cc1ccc(-c2nc(NC(=O)c3nn(C)cc3[N+](=O)[O-])sc2C)cc1,8.83 unspecified (inactive),,
N#Cc1cc(Oc2cccc3cccnc23)c(-n2nnc3ccccc32)cc1C#N,,,COX8b expression increase ([1]; at 6.8 µM (top of the series)): -21.9 unspecified (inactive)
Cc1nc(Nc2ccc(S(N)(=O)=O)cc2)sc1C(=O)Nc1ccccc1,-1.19 unspecified (inactive),,
CS(=O)c1nc(-c2ccc(Br)cc2)cc(-c2ccccc2)c1C#N (centres undefined),6.29 unspecified (inactive),,
COCCSc1ccccc1C(=O)Nc1cc(C)on1,3.36 unspecified (inactive),,
O=C(Nc1ccc(N2CCN(Cc3ccccc3F)CC2)cc1)c1ccc([N+](=O)[O-])o1,,10.4 µM,
CCOC(=O)c1c2c(n(C)c1C)C(=O)C(=O)c1ccc(Br)cc1-2,,16.8 µM,
O=C(Nc1ccc(C(F)(F)F)cc1)N1C[C@@H]2N[C@H](C1)C2c1ccc(-c2ccccc2)cc1 (some centres undefined),,> 19.5 µM (inactive),
O=C(Nc1cccc(F)c1)N1CC(=O)N2[C@@H](CO)[C@@H](c3ccc(C#Cc4cccnc4)cc3)[C@@H]2C1,,> 19.5 µM (inactive),
OC(c1cc(C(F)(F)F)nc2c(C(F)(F)F)cccc12)C1CCCCN1 (centres undefined),1.68 unspecified (inactive),,
